# Laboratory results as given in paper PMC8868193 (Antibiotics, 2022).
# pIC50: −log10 of the molar value. Where two headings read alike, the source gives them in different places. Non-standard residues stand in square brackets, D forms with d. Residues, ends and D or L forms follow the SMILES beside them. NMeA = CN[C@@H](C)C(=O)O
# How the values were obtained:
# Candida albicans SC5314 = assay: microbe, parasite or virus in culture; conditions: for MIC: Candida albicans; for Anti-Fungal MICs: SC5314, pH 7
# Protocol: Candida albicans SC5314 was used as a test strain for the antifungal and synergistic antifungal bioassay. Checkerboard assays were carried out as described previously. Overnight cultures were chosen to prepare the strain suspension with RPMI 1640 medium. RPMI 1640 was purchased from Invitrogen, and was used according to the manufacturer’s protocol, by supplementing 2% glucose, 3.45% MOS, then adjusting the pH to 7.0. Compounds were dissolved in DMSO. Final concentrations ranged from 0.002 to 2 μg/mL for rapamycin and 0.39 to 25 μg/mL for peptide-like compounds, respectively. Rapamycin was 2-fold diluted from 1 to 11 (column), while selected compounds were 2-fold diluted from A to G (row) of the 96-well microtiter plate. The fractional inhibitory concentration index (FICI) is defined as the sum of the MIC of each drug when used in combination divided by the MIC of the drug used alone. Synergism and antagonism were defined by FICI of ≤0.5 and >4, respectively.
# HDAC8 = target: T1, HDAC8 (Homo sapiens, UniProt Q9BY41); assay: HDAC activity assay (HDAC8 Deacetylase Fluorometric (Human) Assay Kit); format: biochemical; conditions: triplicate
# T1 construct: purchased Abnova KA4444
# T1 sequence (Q9BY41 1-377): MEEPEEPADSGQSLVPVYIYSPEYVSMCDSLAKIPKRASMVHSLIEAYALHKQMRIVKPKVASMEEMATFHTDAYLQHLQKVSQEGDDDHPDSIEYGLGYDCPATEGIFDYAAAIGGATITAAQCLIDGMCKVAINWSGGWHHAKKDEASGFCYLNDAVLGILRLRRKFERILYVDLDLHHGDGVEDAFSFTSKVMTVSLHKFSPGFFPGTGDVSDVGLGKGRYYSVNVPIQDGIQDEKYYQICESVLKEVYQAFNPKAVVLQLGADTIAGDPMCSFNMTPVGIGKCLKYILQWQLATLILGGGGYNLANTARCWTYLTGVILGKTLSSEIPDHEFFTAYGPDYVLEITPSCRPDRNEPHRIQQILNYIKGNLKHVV
# Protocol: The HDAC activity of the compounds was measured using an HDAC8 Deacetylase Fluorometric (Human) Assay Kit (Cat KA4444, Abnova, Taipei, Taiwan) according to the manufacturer’s instructions. Fluorescence signal was detected with excitation at 360 nm and emission at 460 nm using a fluorescence microplate reader (Perkin-Elmer, Waltham, MA, USA). Experiments were performed in triplicate and data were analyzed using GraphPad Prism (version 6.0), Kd values were calculated by nonlinear curve fitting using a 1-site binding (hyperbola) model (Y = Bmax*X/(Kd + X).
# [1] = parameters: method as in 3 sources, ref [9] = [9]; PMID 16839576; doi:10.1016/j.phytochem.2006.05.033; 9. Walton J.D. HC-toxin Phytochemistry 2006 67 1406 1413 10.1016/j.phytochem.2006.05.033 16839576 ||| ref [16] = [16]; PMID 35747077; doi:10.1039/D0RA09388B; 16. Lin X. Chai L. Zhu H.R. Zhou Y. Lin. H.W. Applying molecular networking for targeted isolation of depsipeptides RSC Adv. 2021 11 2774 10.1039/D0RA09388B PMC9134009 35747077 ||| ref [17] = [17]; PMID 32528927; doi:10.3389/fchem.2020.00397; 17. Sala G.D. Mangoni A. Costantino V. Teta R. Identification of the biosynthetic gene cluster of thermoactinoamides and discovery of new congeners by integrated genome mining and MS-Based molecular n; conditions: literature, cited from earlier work
# [2] = literature; ref [10]; cited from earlier work
# Source text: Fungal natural products play a prominent role in the development of pharmaceutical agents.
# [3] = SC5314, pH 7, read-out: Anti-Fungal MICs
molecule,measurement,setting,value
"C[C@@H]1[C@H](O)[C@@H](C)/C=C/C=C/C=C/C=C/C=C/C=C/C=C/[C@H](O[C@@H]2O[C@H](C)[C@@H](O)[C@H](N)[C@@H]2O)C[C@@H]2O[C@](O)(C[C@@H](O)C[C@@H](O)[C@H](O)CC[C@@H](O)C[C@@H](O)CC(=O)O[C@H]1C)C[C@H](O)[C@H]2C(=O)O [Amphotericin B, reference compound]",MIC,Candida albicans SC5314; [3],0.5 µM
same,MIC,"Candida albicans SC5314; SC5314, pH 7, read-out: Synergistic Anti-Fungal MICs",0.125 µM
"CC[C@H](C)[C@@H]1NC(=O)[C@H](C(C)C)NC(=O)[C@@H](Cc2ccc(OC)cc2)NC(=O)[C@H](C)N(C)C1=O [Compound 1, cyclo-[L-N-Me-Ala-L-Ile-L-Val-D-O-Me-Tyr]] (cyclo(I[NMeA][dY](Me)V))",pIC50,"HDAC8; text: HDAC at the cell level, method: HDAC8 fluorometric kit, ex 360 nm / em 460 nm, read-out: HDAC inhibition IC50",~4.15
same,Anti-Fungal MICs,Candida albicans SC5314,>100 µM
"CC[C@H](C)[C@@H]1NC(=O)[C@H]([C@@H](C)O)NC(=O)[C@@H](Cc2ccc(OC)cc2)NC(=O)[C@H](C)N(C)C1=O [Compound 2, cyclo-[L-N-Me-Ala-L-Ile-L-Thr-D-O-Me-Tyr]] (cyclo([NMeA][dY](Me)TI))",HDAC inhibitory activity (in words),HDAC8; HDAC8 fluorometric kit,weak HDAC (histone deacetylase) inhibitory activity
same,Anti-Fungal MICs,Candida albicans SC5314,>100 µM
same,antifungal activity alone (in words),"Candida albicans SC5314; compound alone, C. albicans",no antifungal effects alone
same,Synergistic Anti-Fungal MICs,"Candida albicans SC5314; with 0.008 μM rapamycin, C. albicans SC5314, checkerboard, RPMI 1640, pH 7.0, start concentration 25 μM, 90% growth inhibition",6.25 µM
same,concentration of compound required with rapamycin for achieving 90% growth inhibition (checkerboard MIC),"Candida albicans SC5314; with 0.008 μM rapamycin, Candida albicans SC5314",6.25 µM
"CO[C@H]1C[C@@H]2CC[C@@H](C)[C@@](O)(O2)C(=O)C(=O)N2CCCC[C@H]2C(=O)O[C@H]([C@H](C)C[C@@H]2CC[C@@H](O)[C@H](OC)C2)CC(=O)[C@H](C)/C=C(\C)[C@@H](O)[C@@H](OC)C(=O)[C@H](C)C[C@H](C)/C=C/C=C/C=C/1C [Rapamycin, reference compound]",MIC,Candida albicans SC5314; [3],0.5 µM
same,concentration of rapamycin required in combination for achieving 90% growth inhibition (checkerboard MIC),"Candida albicans SC5314; together with 6.25 μM of compounds 1 and 2, Candida albicans SC5314",0.008 µM
HC toxin,cytotoxic / antimitogenic activity (in words),[1]; ref [9],cytotoxic and antimitogenic activities
apicidin,antiprotozoan activity (in words),[2],antiprotozoan activities
neoantimycin L,cytotoxicity (in words),[1]; ref [16],excellent cytotoxicity
thermoactinoamide A,antiproliferative activity (in words),[1]; ref [17],moderate antiproliferative activity
